# Source: patent publication US20230285387A1, “COMBINATION OF MORPHINAN COMPOUNDS AND ANTI[…] THE TREATMENT OF PS[…], NEUROLOGICAL DISEASES, I[…] CHRONIC PAIN AND BRAIN INJURY” (Concert Pharmaceuticals, Inc., priority 2008, published 2023)
# Counter-ions that a name gives are not always drawn.
# Key:
# CYP2D6 = target: T1, CYP2D6 (Homo sapiens, UniProt P10635); assay: Metabolic stability in CYP2D6 SUPERSOMES; assay type: in vitro ADME; conditions: human, recombinant human CYP2D6 SUPERSOMES; 1 μM test compound, 2 mM NADPH, 0.1 M potassium phosphate buffer pH 7.4, 37° C., 0-30 minutes, parent remaining by LC-MS/MS; read-out: t1/2 ± SD (calculated in vitro half-life in SUPERSOMES)
# T1 construct: purchased GenTest (Woburn, Mass., USA)
# Experimental: (§1) Human CYP2D6 SUPERSOMES™ were purchased from GenTest (Woburn, Mass., USA). […] The 7.5 mM stock solutions were diluted to 50 μM in acetonitrile (ACN). The […] CYP2D6 supersomes were diluted to 62.5 μmol/mL in 0.1 M potassium phosphate buffer, pH 7.4, containing 3 mM MgCl2. The diluted SUPERSOMES™ were added to wells of a 96-well deep-well polypropylene plate in triplicate. 10 μL of the 50 μM test compound was added to the supersomes and the mixture was pre-warmed for 10 minutes. Reactions were initiated by addition of pre-warmed NADPH solution. The final reaction volume was 0.5 mL and contained 50 μmol/mL CYP2D6 SUPERSOMES™, 1 μM test compound, and 2 mM NADPH in 0.1 M potassium phosphate buffer, pH 7.4, and 3 mM MgCl2. The reaction mixtures were incubated at 37° C. and 50 μL aliquots were removed at 0, 5, 10, 20, and 30 minutes and added to shallow-well 96-well plates which contained 50 μL of ice-cold ACN with internal standard to stop the reactions. The plates were stored at 4° C. for 20 minutes after which 100 μL of water was added to the wells of the plate before centrifugation to pellet precipitated proteins. Supernatants were transferred to another 96-well plate and analyzed for amounts of parent remaining by LC-MS/MS using an Applied Bio-systems API 4000 mass spectrometer.
# (§2) The in vitro half-life (t1/2) for each of the test compounds was calculated from the slopes of the linear regression of % parent remaining (ln) vs incubation time relationship: in vitro t1/2=0.693/k, where k=−[slope of linear regression of % parent remaining(ln) vs incubation time]. Data analysis was performed using Microsoft Excel Software.
# Human CYP2D6 SUPERSOMES = target: T2, Human CYP2D6 SUPERSOMES (Homo sapiens, UniProt P10635); assay: Metabolic stability in CYP2D6 SUPERSOMES; assay type: in vitro ADME; conditions: 1 μM test compound, 2 mM NADPH, 0.1 M potassium phosphate buffer pH 7.4, 37° C., 0-30 minutes, parent remaining by LC-MS/MS
# T2 construct: purchased GenTest (Woburn, Mass., USA)
# Experimental: as §1, §2
# T1 sequence (P10635 whole entry): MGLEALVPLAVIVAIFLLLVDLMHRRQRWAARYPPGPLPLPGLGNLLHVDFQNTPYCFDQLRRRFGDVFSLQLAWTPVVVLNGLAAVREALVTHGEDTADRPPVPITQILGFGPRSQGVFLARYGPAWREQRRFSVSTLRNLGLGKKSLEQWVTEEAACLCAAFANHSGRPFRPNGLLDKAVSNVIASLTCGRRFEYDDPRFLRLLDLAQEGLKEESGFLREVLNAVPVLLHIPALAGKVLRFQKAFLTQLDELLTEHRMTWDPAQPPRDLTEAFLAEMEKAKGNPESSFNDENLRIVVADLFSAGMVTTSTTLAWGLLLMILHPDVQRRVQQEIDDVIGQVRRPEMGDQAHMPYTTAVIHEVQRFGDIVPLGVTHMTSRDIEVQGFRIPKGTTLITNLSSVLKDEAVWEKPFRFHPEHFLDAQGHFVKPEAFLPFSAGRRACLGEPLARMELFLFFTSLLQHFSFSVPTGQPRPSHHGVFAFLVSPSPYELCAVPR
# T2 sequence (P10635 whole entry): as above
Structure (SMILES),half-life at 1 μM (CYP2D6),t1/2 ± SD (calculated in vitro half-life in SUPERSOMES) (Human CYP2D6 SUPERSOMES)
"[2H]C([2H])([2H])C([2H])([2H])Oc1ccc2c(c1)[C@]13CCCC[C@@H]1C(C2)N(C)CC3 (single isomer, unassigned; (+)) [Compound 104, (+)-3-(Ethoxy-d5)-17-methyl-(9α,13α,14α)-morphinan hydrochloride]",49.1 ± 4.1 min,
"[2H]C([2H])([2H])C([2H])(Oc1ccc2c(c1)[C@]13CCCC[C@@H]1C(C2)N(C)CC3)C([2H])([2H])[2H] (single isomer, unassigned; (+)) [Compound 106, (+)-3-(Isopropoxy-d7)-17-methyl-(9α,13α,14α)-morphinan]",36 ± 2.8 min,
"[2H]C([2H])([2H])N1CC[C@@]23CCCC[C@@H]2[C@@H]1Cc1ccc(OC([2H])(C([2H])([2H])[2H])C([2H])([2H])[2H])cc13 [Compound 102, (+)-3-(Isopropoxy-d7)-17-(methyl-d3)-(9α,13α,14α)-morphinan]",,39.0 ± 1.9 min
"[2H]C([2H])([2H])Oc1ccc2c(c1)[C@]13CCCC[C@@H]1[C@H](C2)N(C([2H])([2H])[2H])CC3 [Test Compound, (+)-3-d3-methoxy-17-d3-methyl-(9α,13α,14α)-morphinan]",5.6 ± 1.5 min,
